Experimental findings from patent US9149489B2, “Inhibitors of glycolysis useful in the treatment of brain tumors” (Board of Regents, University of Texas System, priority 2006, dated 2015) are described below.

Structures are written as SMILES. Read-outs that look alike come from different tables or passages of the source. A value given as a limit tells only on which side of the number the result lay.

The test system of data set [1] is U87 glioblastoma cells. The data set is described as follows: U87 cell viability (MTT) assay under normoxia and hypoxia. In kind it is cell-based, human. The following applies: for IC50: Homo sapiens, U-87 MG, 72 h. The protocol:
(§1) Cell viability experiments were carried out in U87 glioblastoma cells with 8000 cells/well in flat bottom 96 well plates. The cells were grown in low glucose (5.4 mM) DMEM/F12 media with 10% FBS and antibiotics. 24 hours after plating, cells were treated with increasing concentration of 2-deoxy-2,2-difluoro-D-arabino-hexopyranose (DFG) for 72 hours in normoxic (21% O2) or hypoxic (0.1% O2) conditions. In addition, to test the ability of monosachamides to compete with DFG in inhibiting glycolysis and glycosylation, cells were treated with increasing concentrations of glucose, mannose or galactose. The experiments were carried out in duplicate (n=2).
(§2) U87 human glioma cancer cells were obtained from the American Type Culture Collection (Manassas, Va.) and maintained in a humidified atmosphere containing 5% CO2 at 37° C. Cells were routinely cultured in DMEM/F12 medium (Invitrogen Corp., Grand Island, N.Y.) supplemented with 10% heat inactivated fetal bovine serum (Hyclone Laboratories Inc., Logan, Utah), 50 IU/ml penicillin and […] streptomycin from GIBCO (Invitrogen). Cell viability experiments were carried out in U87 cells with 8000 cells/well in flat bottom 96 well plates. The cells were grown in low glucose (5.4 mM) DMEM/F12 media supplied with 10% FBS and antibiotics. 24 hours after plating, cells were treated with increasing concentration (1 to 10 mM) of 2-difluoro-D-glucose (DFG) for 72 hours in normoxic (21% O2) or hypoxic (approximately 0.1% O2) conditions. To test the competing ability of glucose, galactose and mannose with DFG, the cells were also treated with increasing concentration of the glucose (5, 10, and 20 mM), galactose (5, 10, and 20 mM) or mannose (0.1, 1, and 5 mM). The experiments were carried out in duplicate (n=2). After 72 hours of treatment, inhibition of cellular proliferation was assessed by the MTT assay. Absorbance was read at a wavelength of 570 nm using a V Max Micro plate reader by Molecular Devices, Inc. (Sunnyvale, Calif.). The cytoctoxicity of 2-DFG was calculated by normalization to the 100% viability of the control (untreated cells) and presented as percent control.

The test system of another data set is orthotopic glioma model. The data set can be described thus: Orthotopic glioma model, antitumor activity in vivo. The following applies: compared with temozolomide.
Data set [2] has as its system U87 cells. The data set is described as follows: Transmission electron microscopy / detection of autophagosomes. In kind it is cell-based, human. The protocol: FIGS. 16a through 16d provides electron micrographs of 2-DFG induced autophagy in U87 cells (5 mM, 72 h treatment, 5.6 mM low glucose media).
(§3) To test the ability of the 2-DFG to induce autophagic cell death, we monitored the increase in acidic vesicular organelles (AVO) using acridine orange staining in U87 cells treated with increasing concentrations of 2-DFG for 72 hours under hypoxia and normoxia. […] Therefore, targeting the energetic metabolism of cancer cells and the autophagic survival response using inhibitors of glycolysis is a promising therapeutic approach for the treatment of cancers that are dependent on glycolysis for survival.

The subject of data set [3] is U87 glioblastoma cells. The data set can be described thus: U87 cell viability assay with co-treatment by D-glucose, D-mannose or D-galactose (competition). The conditions noted are these: for Viability Protection by D-Mannose Under Hypoxia (IC50 shift) / Viability Protection by D-Mannose Under Normoxia (IC50 shift): co-treatment with 0.1 mM of D-mannose; for Viability Protection by D-Galactose Under Hypoxia (IC50 shift) / Viability Protection by D-Galactose Under Normoxia (IC50 shift): co-treatment with 5 mM of D-galactose; for Viability Protection by D-Glucose Under Hypoxia (IC50 shift) / Viability Protection by D-Glucose Under Normoxia (IC50 shift): co-treatment with 5 mM of D-glucose. In kind it is cell-based, human. On the procedure:
as §1, §2

In data set [4] the test system is U87 cells. The data set is described as follows: Cell cycle analysis. It is filed as cell-based, human. The conditions noted are these: 5 mM, 72 h.
Data set [5] has as its system U87 cells. The data set can be described thus: Acridine orange staining of acidic vesicular organelles (AVO), autophagy. In kind it is cell-based, human. The following applies: 72 hours, increasing concentrations, hypoxia and normoxia. The protocol:
FIGS. 14a through 14f provide the quantification of 2-DFG induced autophagy in U87 glioma cells after 72 h of normoxia treatment in 5.6 mM low glucose media using acridine orange-acid vesicular organelles (AVO) straining assay.
FIGS. 15a through 15f provide the quantification of 2-DFG induced autophagy in U87 glioma cells after 72 h of hypoxia treatment in 5.6 mM low glucose media using acridine orange-acid vesicular organelles (AVO) straining assay.
as §3

Setting [6] is: hypoxia (0.1% O2), 72 hours, low glucose media, read-out: Inhibition under Hypoxia (IC50, U87 cell viability).
Where [7] appears, read: normoxia (21% O2), 72 hours, low glucose media, read-out: Inhibition under Normoxia (IC50, U87 cell viability).

In the case of `O=CC[C@@H](O)[C@H](O)[C@H](O)CO` [2-DG, 2-Deoxy-D-glucose, reference compound], the IC50 (usually the concentration that gives 50% inhibition) with U87 glioblastoma cells [1] (setting [6]) was no less than 1800 µM. Besides, in the data set with U87 glioblastoma cells [1] (setting [7]), the IC50 is no less than 1800 µM. The “Antitumor activity in vivo” value in the data set on orthotopic glioma model is “comparable to that of temozolomide”. Further, in the data set with U87 cells [2] (U87 Glioblastoma cells, preliminary studies), the “Stimulation of autophagy (detection of autophagosomes after treatment)” value is given as “able to stimulate the process of autophagy”. Besides, in the data set with U87 glioblastoma cells [3], the “Viability Protection by D-Mannose Under Hypoxia (IC50 shift)” value is “++ (~1.5-2 mM IC50 shift after co-treatment with 0.1 mM of D-mannose)”, the “Viability Protection by D-Galactose Under Hypoxia (IC50 shift)” value is given as “− (0-0.5 mM IC50 shift after co-treatment with 5 mM of D-galactose.)”, the “Viability Protection by D-Glucose Under Hypoxia (IC50 shift)” value is given as “+++ (>5 mM IC50 shift after co-treatment with 5 mM of D-glucose)” and the “Viability Protection by D-Mannose Under Normoxia (IC50 shift)” value is “+++ (>5 mM IC50 shift after co-treatment with 0.1 mM of D-mannose)”. In the data set with U87 glioblastoma cells [3], the “Viability Protection by D-Galactose Under Normoxia (IC50 shift)” value was “− (0-0.5 mM IC50 shift after co-treatment with 5 mM of D-galactose.)” and the “Viability Protection by D-Glucose Under Normoxia (IC50 shift)” value is on record as “+ (~1 mM IC50 shift after co-treatment with 5 mM of D-glucose)”.

Regarding `O=C[C@H](F)[C@@H](O)[C@H](O)[C@H](O)CO` [2-FG, 2-fluoro-2-deoxy-D-glucose], in the data set on orthotopic glioma model, the “Antitumor activity in vivo” value is “comparable to that of temozolomide”.

In the case of `O=C[C@@H](F)[C@@H](O)[C@H](O)[C@H](O)CO` [2-FM, 2-fluoro-2-deoxy-D-mannose], in the data set with orthotopic glioma model, the “Antitumor activity in vivo” value was “comparable to that of temozolomide”.

With `OC[C@H]1OC(O)C(F)(F)[C@@H](O)[C@@H]1O` (stereo partly drawn) [DFG, 2-Deoxy-2,2-difluoro-D-arabino-hexopyranose], the IC50 with U87 glioblastoma cells [1] (setting [6]) fell in the range of 1500 to 1800 µM. For the same compound, the IC50 with U87 glioblastoma cells [1] (hypoxic conditions (0.1% O2), read-out: IC50 (cytotoxicity in U87 cells)) turned out to be 1200 µM. In the data set on U87 glioblastoma cells [1] (setting [7]), the IC50 was no less than 1800 µM. For the same compound, in the data set on U87 glioblastoma cells [1] (normoxic conditions (21% O2), read-out: IC50 (cytotoxicity in U87 cells)), the IC50 is 2900 µM. The “Concentration giving substantial inhibition of cellular growth” value in the data set on U87 glioblastoma cells [1] (hypoxic conditions) is reported as “lower than 4 mM”. Besides, the “Concentration required for substantial inhibition of cellular growth” value with U87 glioblastoma cells [1] (normoxic conditions) is “above 6 mM”. In the data set on U87 cells [4], the “Cell cycle distribution: G2/M phase” value is “significant increase in G2/M phase” and the “Cell cycle distribution: Sub G0/G1 phase” value is “no significant increase in Sub G0/G1 phase”. The “Autophagosomes by electron microscopy” value in the data set on U87 cells [2] (5 mM, 72 h treatment, normoxia) was “extensive presence of autophagosomes”. Further, in the data set on U87 cells [5], the “Acidic vesicular organelles (AVO), acridine orange staining” value was “concentration dependent increase in acridine orange staining”. Moreover, in the data set with U87 glioblastoma cells [3], the “Viability Protection by D-Mannose Under Hypoxia (IC50 shift)” value was “− (0-0.5 mM IC50 shift after co-treatment with 0.1 mM of D-mannose)”, the “Viability Protection by D-Galactose Under Hypoxia (IC50 shift)” value is recorded as “− (0-0.5 mM IC50 shift after co-treatment with 5 mM of D-galactose.)”, the “Viability Protection by D-Glucose Under Hypoxia (IC50 shift)” value is “++ (~1.5-2 mM IC50 shift after co-treatment with 5 mM of D-glucose)” and the “Viability Protection by D-Mannose Under Normoxia (IC50 shift)” value is listed as “+ (~1 mM IC50 shift after co-treatment with 0.1 mM of D-mannose)”. For the same compound, in the data set with U87 glioblastoma cells [3], the “Viability Protection by D-Galactose Under Normoxia (IC50 shift)” value is given as “− (0-0.5 mM IC50 shift after co-treatment with 5 mM of D-galactose.)” and the “Viability Protection by D-Glucose Under Normoxia (IC50 shift)” value is “+ (~1 mM IC50 shift after co-treatment with 5 mM of D-glucose)”.
